In patent publication US20230139171A1 (SITA Information Networking Computing UK Limited, priority 2019, published 2023):

Legend:
Format in all cases: cell-based
human TLR8 = biological target: T1, human TLR8 (Homo sapiens, UniProt Q9NR97); experiment: TLR8 inhibition reporter assay (HEK-Blue cells, SEAP reporter, R848 stimulation); details: HEK-Blue cells overexpressing human TLR8, SEAP reporter, R848 15.9 μM; read-out: TLR8 IC50
T1 construct: host or cells: HEK-Blue cells
T1 sequence (Q9NR97 27-1041): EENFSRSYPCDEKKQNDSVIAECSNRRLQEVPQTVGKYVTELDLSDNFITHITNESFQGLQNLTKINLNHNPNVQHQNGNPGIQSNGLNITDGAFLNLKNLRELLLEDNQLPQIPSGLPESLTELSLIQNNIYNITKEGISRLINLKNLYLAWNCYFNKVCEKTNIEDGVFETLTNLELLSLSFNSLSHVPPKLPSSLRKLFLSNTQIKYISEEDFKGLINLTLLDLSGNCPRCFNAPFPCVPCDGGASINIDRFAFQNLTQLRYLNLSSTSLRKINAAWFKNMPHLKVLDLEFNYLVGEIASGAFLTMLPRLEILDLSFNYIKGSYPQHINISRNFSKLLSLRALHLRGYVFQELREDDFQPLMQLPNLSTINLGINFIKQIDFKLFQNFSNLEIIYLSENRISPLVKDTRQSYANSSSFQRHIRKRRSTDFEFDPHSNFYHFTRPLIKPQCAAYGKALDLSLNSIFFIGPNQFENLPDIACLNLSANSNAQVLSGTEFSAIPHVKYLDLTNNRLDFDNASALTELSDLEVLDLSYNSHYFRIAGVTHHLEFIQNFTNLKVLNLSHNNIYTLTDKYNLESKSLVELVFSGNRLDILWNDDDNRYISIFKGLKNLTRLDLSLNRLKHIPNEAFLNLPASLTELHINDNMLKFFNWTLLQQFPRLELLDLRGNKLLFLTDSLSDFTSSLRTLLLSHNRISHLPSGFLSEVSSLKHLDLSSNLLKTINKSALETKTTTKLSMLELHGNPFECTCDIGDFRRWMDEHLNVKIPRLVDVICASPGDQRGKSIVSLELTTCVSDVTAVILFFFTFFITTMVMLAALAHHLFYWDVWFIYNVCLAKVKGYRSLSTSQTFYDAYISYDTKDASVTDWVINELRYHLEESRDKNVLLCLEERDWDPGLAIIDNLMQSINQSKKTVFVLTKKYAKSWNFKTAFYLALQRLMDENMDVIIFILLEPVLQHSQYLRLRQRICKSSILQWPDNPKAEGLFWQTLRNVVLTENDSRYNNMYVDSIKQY
How it was run: (§1)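 Dose–response from 0.05 nM to 50 μM was run in HEK-Blue human TLR7, TLR8 and TLR9 reporter cells. After 30 min at room temperature with compound, ligand was added (TLR7 gardiquimod 7.5 μM; TLR8 R848 15.9 μM; TLR9 ODN2006 5 nM) and SEAP measured next day, at 22 h.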

human TLR9 = biological target: T2, human TLR9 (Homo sapiens, UniProt Q9NR96); experiment: TLR9 inhibition reporter assay (HEK-Blue cells, SEAP reporter, ODN2006 stimulation); details: HEK-Blue cells overexpressing human TLR9, SEAP reporter, ODN2006 5 nM
T2 construct: host or cells: HEK-Blue cells
T2 sequence (Q9NR96 26-1032): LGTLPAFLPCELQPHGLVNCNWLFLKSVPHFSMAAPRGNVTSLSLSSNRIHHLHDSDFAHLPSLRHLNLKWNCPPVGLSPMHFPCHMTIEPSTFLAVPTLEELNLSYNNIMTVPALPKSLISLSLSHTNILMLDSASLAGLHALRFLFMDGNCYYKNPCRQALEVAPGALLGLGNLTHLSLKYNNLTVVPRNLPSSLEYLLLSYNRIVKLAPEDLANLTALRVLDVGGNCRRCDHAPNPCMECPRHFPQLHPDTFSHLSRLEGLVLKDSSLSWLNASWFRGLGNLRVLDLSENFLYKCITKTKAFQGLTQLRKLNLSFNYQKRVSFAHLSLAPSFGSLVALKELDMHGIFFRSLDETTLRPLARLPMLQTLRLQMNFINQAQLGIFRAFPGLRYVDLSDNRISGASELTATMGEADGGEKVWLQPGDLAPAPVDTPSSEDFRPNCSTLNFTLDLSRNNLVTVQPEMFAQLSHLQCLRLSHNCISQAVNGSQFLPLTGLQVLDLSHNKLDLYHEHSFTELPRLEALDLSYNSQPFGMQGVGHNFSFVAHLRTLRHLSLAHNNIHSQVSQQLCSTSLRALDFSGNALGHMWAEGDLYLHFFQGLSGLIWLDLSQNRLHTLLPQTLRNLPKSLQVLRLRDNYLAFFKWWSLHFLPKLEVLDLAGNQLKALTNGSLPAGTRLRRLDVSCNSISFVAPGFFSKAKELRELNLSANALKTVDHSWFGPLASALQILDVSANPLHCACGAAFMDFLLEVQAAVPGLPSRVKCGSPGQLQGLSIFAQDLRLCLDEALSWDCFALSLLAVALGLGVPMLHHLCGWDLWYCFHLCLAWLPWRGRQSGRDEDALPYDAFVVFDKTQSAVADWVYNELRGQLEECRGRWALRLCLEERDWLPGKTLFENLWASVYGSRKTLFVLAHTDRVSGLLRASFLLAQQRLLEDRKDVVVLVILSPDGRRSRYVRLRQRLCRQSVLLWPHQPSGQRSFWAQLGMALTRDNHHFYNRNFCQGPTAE
How it was run: as §1

human TLR7 = biological target: T3, human TLR7 (Homo sapiens, UniProt Q9NYK1); experiment: TLR7 inhibition reporter assay (HEK-Blue cells, SEAP reporter, gardiquimod stimulation); details: HEK-Blue cells overexpressing human TLR7, SEAP reporter, gardiquimod 7.5 μM; read-out: TLR7 IC50
T3 construct: host or cells: HEK-Blue cells
T3 sequence (Q9NYK1 27-1049): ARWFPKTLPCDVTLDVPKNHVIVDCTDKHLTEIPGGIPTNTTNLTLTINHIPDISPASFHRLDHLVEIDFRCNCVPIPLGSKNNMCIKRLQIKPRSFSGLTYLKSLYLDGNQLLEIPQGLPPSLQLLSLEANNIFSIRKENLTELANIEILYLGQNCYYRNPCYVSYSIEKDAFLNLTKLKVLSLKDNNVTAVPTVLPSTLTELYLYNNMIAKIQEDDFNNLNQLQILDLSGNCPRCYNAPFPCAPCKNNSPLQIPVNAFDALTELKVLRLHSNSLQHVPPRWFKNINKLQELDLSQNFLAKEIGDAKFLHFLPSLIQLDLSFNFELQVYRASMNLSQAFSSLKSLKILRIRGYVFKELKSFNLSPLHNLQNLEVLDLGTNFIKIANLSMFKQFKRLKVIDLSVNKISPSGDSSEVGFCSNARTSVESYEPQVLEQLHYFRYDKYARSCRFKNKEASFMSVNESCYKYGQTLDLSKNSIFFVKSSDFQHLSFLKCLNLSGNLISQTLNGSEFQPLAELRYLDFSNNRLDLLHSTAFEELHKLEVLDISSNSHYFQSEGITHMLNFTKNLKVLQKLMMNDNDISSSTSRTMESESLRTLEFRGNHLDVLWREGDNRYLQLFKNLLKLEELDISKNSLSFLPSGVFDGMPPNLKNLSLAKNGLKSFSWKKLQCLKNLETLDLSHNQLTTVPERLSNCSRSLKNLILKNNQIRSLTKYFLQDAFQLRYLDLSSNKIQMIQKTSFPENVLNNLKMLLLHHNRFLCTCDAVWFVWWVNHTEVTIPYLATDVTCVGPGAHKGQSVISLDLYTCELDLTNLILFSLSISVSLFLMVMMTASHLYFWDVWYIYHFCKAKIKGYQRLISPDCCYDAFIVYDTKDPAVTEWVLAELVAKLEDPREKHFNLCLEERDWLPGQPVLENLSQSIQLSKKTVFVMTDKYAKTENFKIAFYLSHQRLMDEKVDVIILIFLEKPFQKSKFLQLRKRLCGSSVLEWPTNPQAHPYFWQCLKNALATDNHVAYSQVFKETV
How it was run: as §1

Structure (SMILES)	IC50 (human TLR8)	IC50 (human TLR9)	IC50 (human TLR7)
COc1cc(-c2[nH]c3sc(C4CCC(NS(C)(=O)=O)CC4)nc3c2C(C)C)cn2ncnc12 (stereo not drawn) [Example 127, N-(4-(6-isopropyl-5-(8-methoxy-[1,2,4]triazolo[1,5-a]pyridin-6-yl)-4H-pyrrolo[3,2-d]thiazol-2-yl)cyclohexyl)methanesulfonamide]	178 nM	> 50000 nM	1.99 nM
Cc1cc(-c2[nH]c3sc(C4CCC(N5CC6(COC6)C5)CC4)nc3c2C(C)C)cn2ncnc12 (single isomer, unassigned) [Example 137, 6-(4-(6-isopropyl-5-(8-methyl-[1,2,4]triazolo[1,5-a]pyridin-6-yl)-4H-pyrrolo[3,2-d]thiazol-2-yl)cyclohexyl)-2-oxa-6-azaspiro[3.3]heptane]	40.8 nM	6730 nM	3.4 nM
CC(C)c1c(-c2cn(C)c3ncccc23)[nH]c2sc(C3CCNCC3)nc12 [Example 3, 6-isopropyl-5-(1-methyl-1H-pyrrolo[2,3-b]pyridin-3-yl)-2-(piperidin-4-yl)-4H-pyrrolo[3,2-d]thiazole]	3.05 nM	18500 nM	1.84 nM
CCCN1CCC(c2nc3c(C(C)C)c(-c4cn5ncnc5c(C)c4C)[nH]c3s2)CC1 [Example 51, 5-(7,8-dimethyl-[1,2,4]triazolo[1,5-a]pyridin-6-yl)-6-isopropyl-2-(1-propylpiperidin-4-yl)-4H-pyrrolo[3,2-d]thiazole]	1.03 nM	8800 nM	1.59 nM
COc1cc(-c2[nH]c3sc(C4CCC(NC5CC6(CNC6)C5)CC4)nc3c2C(C)C)cn2ncnc12 (single isomer, unassigned) [Example 116, N-(4-(6-isopropyl-5-(8-methoxy-[1,2,4]triazolo[1,5-a]pyridin-6-yl)-4H-pyrrolo[3,2-d]thiazol-2-yl)cyclohexyl)-2-azaspiro[3.3]heptan-6-amine]	1.91 nM	3880 nM	3.11 nM
COc1cc(-c2[nH]c3sc(C4CCC(N5CCC6(CC5)COC6)CC4)nc3c2C(C)C)cn2ncnc12 (single isomer, unassigned) [Example 112, 7-(4-(6-isopropyl-5-(8-methoxy-[1,2,4]triazolo[1,5-a]pyridin-6-yl)-4H-pyrrolo[3,2-d]thiazol-2-yl)cyclohexyl)-2-oxa-7-azaspiro[3.5]nonane]	28.3 nM	> 50000 nM	11.4 nM

Continued, values first:

IC50 (human TLR8)	IC50 (human TLR9)	IC50 (human TLR7)	Structure (SMILES)
1.24 nM	23800 nM	1.8 nM	Cc1c(-c2[nH]c3sc(C4CCC(NCC(N)=O)CC4)nc3c2C(C)C)cn2ncnc2c1C (stereo not drawn) [Example 210, 2-((4-(5-(7,8-dimethyl-[1,2,4]triazolo[1,5-a]pyridin-6-yl)-6-isopropyl-4H-pyrrolo[3,2-d]thiazol-2-yl)cyclohexyl)amino)acetamide]
19.2 nM	35600 nM	8.2 nM	Cc1c(-c2[nH]c3sc(N4CC5(CN(CCS(C)(=O)=O)C5)C4)nc3c2C(C)C)cn2ncnc2c1C [Example 304, 5-(7,8-dimethyl-[1,2,4]triazolo[1,5-a]pyridin-6-yl)-6-isopropyl-2-(6-(2-(methylsulfonyl)ethyl)-2,6-diazaspiro[3.3]heptan-2-yl)-4H-pyrrolo[3,2-d]thiazole]
0.09 nM	10900 nM	1.72 nM	Cc1cc2ncnn2cc1-c1[nH]c2sc(C3CCC(NCC(C)(C)O)CC3)nc2c1C(C)C (single isomer, unassigned) [Example 156, 1-((4-(6-isopropyl-5-(7-methyl-[1,2,4]triazolo[1,5-a]pyridin-6-yl)-4H-pyrrolo[3,2-d]thiazol-2-yl)cyclohexyl)amino)-2-methylpropan-2-ol]
11.4 nM	18200 nM	4.43 nM	Cc1c(-c2[nH]c3sc(C4CCC(N5CC(F)C5)CC4)nc3c2C(C)C)cn2ncnc2c1C (single isomer, unassigned) [Example 227, 5-(7,8-dimethyl-[1,2,4]triazolo[1,5-a]pyridin-6-yl)-2-(4-(3-fluoroazetidin-1-yl)cyclohexyl)-6-isopropyl-4H-pyrrolo[3,2-d]thiazole]
20.6 nM	9400 nM	1.59 nM	COc1cc(-c2[nH]c3sc(C4CCC(N(C)CC(=O)N(C)C)CC4)nc3c2C(C)C)cn2ncnc12 (single isomer, unassigned) [Example 163, 2-((4-(6-isopropyl-5-(8-methoxy-[1,2,4]triazolo[1,5-a]pyridin-6-yl)-4H-pyrrolo[3,2-d]thiazol-2-yl)cyclohexyl)(methyl)amino)-N,N-dimethylacetamide]
1.3 nM	21900 nM	4.38 nM	CCN1CCN(c2nc3c(C(C)C)c(-c4cn5ncnc5c(C)c4C)[nH]c3s2)[C@H](C)C1 [Example 320, (R)-5-(7,8-dimethyl-[1,2,4]triazolo[1,5-a]pyridin-6-yl)-2-(4-ethyl-2-methylpiperazin-1-yl)-6-isopropyl-4H-pyrrolo[3,2-d]thiazole]
